Test results reported in PMC9598282 (Antibiotics, 2022).
Converted amounts (≈) assume the structure as drawn. Bridge positions count the residues as written; N and C are the ends. Square brackets hold non-standard residues; d marks the D form. Peptide text beside a SMILES is read from it. Dab = NCC[C@H](N)C(=O)O

Experiments:
A. baumannii AB031 = test: Checkerboard assay; type: cell-based, Acinetobacter baumannii
Protocol: (§1) The adjuvant properties of the guanidinylated polymyxins were evaluated using the checkerboard assay as previously described. The bacterial solution was prepared as described in the antimicrobial susceptibility assay. The antibiotic of interest and the adjuvant were serially diluted two-fold along the x- and y-axis on a 96-well plate, respectively, resulting in varying concentrations of both agents in each well. Equal volumes of bacterial solution were added to the designated wells. The well consisting of bacterial solution served as the positive control, while the wells containing only media served as the negative control. The plate was then incubated at 37 °C for 18 h. After incubation, an Emax Plus microplate reader (Molecular Devices, Union City, CA, USA) was used to measure the OD at a wavelength of 590 nm to confirm the turbidity. The fractional inhibitory concentration (FIC) index was then determined to establish the relationship between the antibiotic and adjuvant. The FIC index corresponds to the sum of the FICs of the antibiotic and adjuvant. The FIC of each agent is calculated by dividing its MIC when it is used in combination by its MIC when used alone. FIC indices ≤0.5, 0.5 < x ≤ 4 and >4 indicate synergy, additivity and antagonism, respectively.

P. aeruginosa 114228 = type: cell-based, Pseudomonas aeruginosa; settings: 114228, 18 h
Protocol: (§2) For the preparation of the bacterial solution, overnight grown culture was diluted in 0.85% saline solution, adjusted to 0.5 McFarland turbidity and further diluted in Mueller–Hinton broth for inoculation to a final concentration of 5 × 10^5 colony forming units/mL (CFU/mL). The agents were serially diluted two-fold in a 96-well plate, and equal volumes of bacterial solution were subsequently added to the designated wells. The well consisting of bacterial solution served as the positive control, while the well containing only media served as the negative control. The plate was then incubated at 37 °C for 18 h. After incubation, an Emax Plus microplate reader (Molecular Devices, Union City, CA, USA) was used to measure the optical density (OD) at a wavelength of 590 nm to confirm the turbidity. The antibacterial activity corresponded to the MIC, which is defined as the lowest concentration of the agent necessary to inhibit visible bacterial growth.

P. aeruginosa PAO1 = type: cell-based, Pseudomonas aeruginosa; settings: wild-type
Protocol: as §2

E. coli ATCC 25922 = type: cell-based, Escherichia coli; settings: ATCC 25922, 18 h
Protocol: as §2

E. coli 107115 = test: microbe, parasite or virus in culture; type: cell-based, Escherichia coli
Protocol: as §1

E. coli 94393 = test: Checkerboard assay; type: cell-based, Escherichia coli
Protocol: as §1

E. coli 94474 = test: Checkerboard assay; type: cell-based, Escherichia coli
Protocol: as §1

P. aeruginosa PA 107092 = test: MIC, broth microdilution; type: cell-based, Pseudomonas aeruginosa; settings: β-lactamase harboring isolate
Protocol: as §2

P. aeruginosa PA 109084 = test: MIC, broth microdilution; type: cell-based, Pseudomonas aeruginosa; settings: β-lactamase harboring isolate
Protocol: as §2

P. aeruginosa PA 88949 = test: MIC, broth microdilution; type: cell-based, Pseudomonas aeruginosa; settings: β-lactamase harboring isolate
Protocol: as §2

P. aeruginosa PA 86052 = test: MIC, broth microdilution; type: cell-based, Pseudomonas aeruginosa; settings: β-lactamase harboring isolate
Protocol: as §2

P. aeruginosa PA 108590 = test: MIC, broth microdilution; type: cell-based, Pseudomonas aeruginosa; settings: β-lactamase harboring isolate
Protocol: as §2

[1] = agent alone, one value per checkerboard plate

CC(C)C[C@@H]1NC(=O)[C@@H](Cc2ccccc2)NC(=O)[C@H](CCN)NC(=O)[C@@H](NC(=O)[C@H](CCN)NC(=O)[C@@H](N)[C@@H](C)O)CCNC(=O)[C@H]([C@@H](C)O)NC(=O)[C@H](CCN)NC(=O)[C@H](CCN)NC1=O [PMBN, polymyxin B nonapeptide] (H-T[Dab][Dab][Dab][dF]L[Dab][Dab]T; lactam 3-C (inferred); N-terminus assumed)
MIC alone (A. baumannii AB031; [1]): > 256 µg/mL
Fold potentiation of aztreonam (A. baumannii AB031; with 0.5 μg/mL adjuvant): 1
Fold-potentiation of ceftazidime (A. baumannii AB031; with 0.5 μg/mL adjuvant): 1
Fold-potentiation of erythromycin (A. baumannii AB031; with 0.5 μg/mL adjuvant): 4
Fold-potentiation of rifampicin (A. baumannii AB031; with 0.5 μg/mL adjuvant): 8
MIC (P. aeruginosa 114228): >256 µg/mL
MIC (P. aeruginosa PAO1): 128 µg/mL (≈ 133 µM)
MIC (E. coli ATCC 25922): >256 µg/mL
MIC alone (E. coli 107115; 107115, 18 h): < 256 µg/mL
MIC alone (E. coli 107115; [1]): > 256 µg/mL
Fold-potentiation of erythromycin (E. coli 107115; with 1 μg/mL adjuvant): 32
Fold-potentiation of rifampicin (E. coli 107115; with 1 μg/mL adjuvant): 512
Fold-potentiation of ceftazidime (E. coli 107115; with 2 μg/mL adjuvant): 32
MIC alone (E. coli 94393; [1]): > 256 µg/mL
Fold-potentiation of erythromycin (E. coli 94393; with 2 μg/mL adjuvant): 8
Fold-potentiation of rifampicin (E. coli 94393; with 2 μg/mL adjuvant): 8
MIC alone (E. coli 94474; [1]): > 256 µg/mL
Fold-potentiation of erythromycin (E. coli 94474; with 4 μg/mL adjuvant): 1
Fold-potentiation of rifampicin (E. coli 94474; with 4 μg/mL adjuvant): 8
MIC (P. aeruginosa PA 107092): 64 µg/mL (≈ 66.4 µM)
MIC (P. aeruginosa PA 109084): 32 µg/mL (≈ 33.2 µM)
MIC (P. aeruginosa PA 88949): 16 µg/mL (≈ 16.6 µM)
MIC (P. aeruginosa PA 86052): 16 µg/mL (≈ 16.6 µM)
MIC (P. aeruginosa PA 108590): 1 µg/mL (≈ 1.04 µM)
